The subject of one assay is LoVo. As to the kind of experiment: Cell proliferation assay (CellTiter-Glo), LoVo. Format: cell-based. As to conditions: Homo sapiens, 120 h, 5 days incubation. On the procedure:
(§1) SW48 cells were plated at a density of 1,500 cells/well, and LoVo, HCT116, and SW620 cells were plated at a density of 800 cells/well in a 96-well cell culture plate, and cultured in a 37°C incubator overnight. The test compounds, which were gradient-diluted with DMSO, were added, and after incubation for 5 days, cell viability was detected using a CellTiter-Glo kit. The CellTiter-Glo reagent was equilibrated to room temperature, and an appropriate amount was added to the cell plate, followed by shaking at room temperature for 12 min. The luminescence signal was detected using a microplate reader.
(§2) The luminescence signal values of the DMSO-treated wells and cell-free wells were used as negative and positive controls, respectively, to calculate the inhibition rate of compound on cell proliferation. The concentration-inhibition curve was fitted using the "log(inhibitor) vs. normalized response -- Variable slope" equation in GraphPad Prism 8 software to obtain the IC50. [formula]
Background: In ATP-based viability assays light output follows the ATP content of the culture.

The test system of the next assay is HCT116 cells. The assay can be described thus: Cell proliferation assay (CellTiter-Glo), HCT116. To be noted: Homo sapiens, 120 h, HCT-116, 5 days incubation. The class given is cell-based. On the procedure: as §1, §2

One may read the IC50 as the concentration at which inhibition is half-maximal. A high value points to a need for much substance.

`CCc1c(N2CCN(C(=O)c3ncnc(C)c3O)CC2)c(=O)c2nn(C3=CCOCC3)nc2n1CC(=O)Nc1ccc(C(F)(F)F)cc1Cl` [Example 4]: the values for the IC50 with LoVo and with HCT116 cells were 105 nM and 48 nM, respectively.

The record behind these values is EP4692088A1, “COMPOUND ACTING AS WRN HELICASE INHIBITOR” (SHANGHAI JEYOU PHARMACEUTICAL CO., LTD., priority 2023, dated 2024).
